Common to all, as to type: functional
Test [1] relates to Pseudomonas aeruginosa. The test is described as follows: Antimicrobial activity against Pseudomonas aeruginosa ATCC 9027 at 1 ug/ml after 24 hrs by agar diffusion method. Particulars: ATCC 9027, 24 h, read-out: DIZ.
For test [2], the system named is Bacillus subtilis. The test can be described thus: Antimicrobial activity against Bacillus subtilis ATCC 6633 at 1 ug/ml after 24 hrs by agar diffusion method. Particulars: ATCC 6633, 24 h, read-out: DIZ. In general terms: Agar diffusion results depend on both activity and mobility in agar.
For test [3], the system named is Staphylococcus aureus. The test can be described thus: Antimicrobial activity against Staphylococcus aureus ATCC 25923 at 1 ug/ml after 24 hrs by agar diffusion method. The settings on record: ATCC 25923, 24 h, read-out: DIZ.
Test [4] relates to Candida albicans. The test can be described thus: Antimicrobial activity against Candida albicans ATCC 32354 at 1 ug/ml after 24 hrs by agar diffusion method. Particulars: ATCC 32354, 24 h, read-out: DIZ.
The subject of test [5] is Salmonella enterica. The test is described as follows: Antimicrobial activity against Salmonella enterica ATCC 14028 at 1 ug/ml after 24 hrs by agar diffusion method. The settings on record: ATCC 14028, 24 h, read-out: DIZ.
The test system of test [6] is Escherichia coli. The test is described as follows: Antimicrobial activity against Escherichia coli ATCC 25922 at 1 ug/ml after 24 hrs by agar diffusion method. The settings on record: ATCC 25922, 24 h, read-out: DIZ.
Test [7] concerns Salmonella enterica. The test is described as follows: Antimicrobial activity against 10^7 CFU/ml Salmonella enterica ATCC 14028 after 22 hrs by serial microdilution method. Particulars: ATCC 14028, 22 h.
The subject of test [8] is Staphylococcus aureus. The test is described as follows: Antimicrobial activity against 10^4 CFU/ml Staphylococcus aureus ATCC 25923 after 22 hrs by serial microdilution method. Particulars: ATCC 25923, 22 h. A general note: Broth dilution looks for growth in wells or tubes with falling amounts of substance.
Test [9] deals with Candida albicans. The test is described as follows: Antimicrobial activity against 10^4 CFU/ml Candida albicans ATCC 32354 after 22 hrs by serial microdilution method. The settings on record: ATCC 32354, 22 h.
In test [10] the test system is Candida albicans. The test can be described thus: Antimicrobial activity against 10^7 CFU/ml Candida albicans ATCC 32354 after 22 hrs by serial microdilution method. Particulars: ATCC 32354, 22 h.
For test [11], the system named is Pseudomonas aeruginosa. The test is described as follows: Antimicrobial activity against 10^4 CFU/ml Pseudomonas aeruginosa ATCC 9027 after 22 hrs by serial microdilution method. The settings on record: ATCC 9027, 22 h.
The subject of test [12] is Escherichia coli. The test is described as follows: Antimicrobial activity against 10^7 CFU/ml Escherichia coli ATCC 25922 after 22 hrs by serial microdilution method. The settings on record: ATCC 25922, 22 h.
The test system of test [13] is Pseudomonas aeruginosa. The test is described as follows: Antimicrobial activity against 10^7 CFU/ml Pseudomonas aeruginosa ATCC 9027 after 22 hrs by serial microdilution method. The settings on record: ATCC 9027, 22 h.
Test [14] has as its system Escherichia coli. The test is described as follows: Antimicrobial activity against 10^4 CFU/ml Escherichia coli ATCC 25922 after 22 hrs by serial microdilution method. Particulars: ATCC 25922, 22 h.
Test [15] relates to Bacillus subtilis. The test can be described thus: Antimicrobial activity against 10^4 CFU/ml Bacillus subtilis ATCC 6633 after 22 hrs by serial microdilution method. Particulars: ATCC 6633, 22 h.
In test [16] the test system is Staphylococcus aureus. The test can be described thus: Antimicrobial activity against 10^7 CFU/ml Staphylococcus aureus ATCC 25923 after 22 hrs by serial microdilution method. The settings on record: ATCC 25923, 22 h.
Test [17] deals with Bacillus subtilis. The test can be described thus: Antimicrobial activity against 10^7 CFU/ml Bacillus subtilis ATCC 6633 after 22 hrs by serial microdilution method. Particulars: ATCC 6633, 22 h.
Test [18] deals with Salmonella enterica. The test can be described thus: Antimicrobial activity against 10^4 CFU/ml Salmonella enterica ATCC 14028 after 22 hrs by serial microdilution method. Particulars: ATCC 14028, 22 h.

Data on five compounds can be found in ChEMBL document CHEMBL3407338, “Synthesis and structure-activity relationship of novel 1,4-diazabicyclo[2.2.2]octane derivatives as potent antimicrobial agents” (Eur J Med Chem, 2015).

Regarding `CC[N+]12CC[N+](CCCCC[N+]34CC[N+](CC)(CC3)CC4)(CC1)CC2`, the zone of inhibition at 1 µg/mL in [1], in test [2], in test [3], in test [4], in [5] and in test [6] was 0 mm in each case.
On to `CCC[N+]12CC[N+](CCCCC[N+]34CC[N+](CCC)(CC3)CC4)(CC1)CC2`, for which the zone of inhibition at 1 µg/mL in [1], in test [2], in [3], in [4], in test [5] and in test [6] was 0 mm each time.
With `CCCCCCC[N+]12CC[N+](CCCCC[N+]34CC[N+](CCCCCCC)(CC3)CC4)(CC1)CC2`, the zone of inhibition at 1 µg/mL in [1] is 0 mm; in [2], 5 mm; in test [3], 5 mm; in test [4], 0 mm; in [5], 0 mm; in test [6], 4 mm.
Broadly, the MIC is the least concentration at which growth counts as inhibited. Higher therefore signals a need for much substance. In the case of `CCCCCCCC[N+]12CC[N+](CCCCC[N+]34CC[N+](CCCCCCCC)(CC3)CC4)(CC1)CC2.[Br-].[Br-].[Br-].[Br-]`, the MBC in [7] is greater than 100 µg/mL; in [8] it was 100 µg/mL; in test [9], less than 1.6 µg/mL; in test [10], less than 1.6 µg/mL; in [11], 50 µg/mL; in test [12] it was 100 µg/mL. Moreover, the MBC in test [13] was greater than 100 µg/mL; in test [14] it was 50 µg/mL; in test [15], 50 µg/mL; in test [16] it was greater than 100 µg/mL; in [17] it was 100 µg/mL; in test [18] it was 100 µg/mL. Further, the MIC in test [7] was 100 µg/mL; in [8], 12.5 µg/mL; in test [9], less than 1.6 µg/mL; in test [10], less than 1.6 µg/mL; in test [11], 25 µg/mL; in [12], 25 µg/mL. In addition, the MIC in test [13] was greater than 100 µg/mL; in test [14] it was 12.5 µg/mL; in test [15], 25 µg/mL; in test [16] it was 50 µg/mL; in test [17], 50 µg/mL; in [18], 100 µg/mL. Also, the zone of inhibition at 1 µg/mL in test [1] amounted to 0 mm; in test [2] it was 10 mm; in [3], 8 mm; in [4] it was 0 mm; in test [5] it was 4 mm; in [6], 4 mm.
Turning to `CCCCCCCCC[N+]12CC[N+](CCCCC[N+]34CC[N+](CCCCCCCCC)(CC3)CC4)(CC1)CC2.[Br-].[Br-].[Br-].[Br-]`, the MBC is 50 µg/mL in test [7]; 25 µg/mL in [8]; less than 1.6 µg/mL in test [9]; less than 1.6 µg/mL in test [10]; 12.5 µg/mL in [11]; 25 µg/mL in test [12]. For the same compound, the MBC in [13] amounted to 100 µg/mL; in [14] it was 12.5 µg/mL; in [15], 6.3 µg/mL; in test [16], 50 µg/mL; in test [17], 25 µg/mL; in test [18] it was 50 µg/mL. The MIC is 25 µg/mL in test [7]; 12.5 µg/mL in test [8]; less than 1.6 µg/mL in test [9]; less than 1.6 µg/mL in test [10]; 12.5 µg/mL in test [11]; 6.3 µg/mL in test [12]. The MIC came out at 50 µg/mL in [13]; 6.3 µg/mL in test [14]; 6.3 µg/mL in test [15]; 12.5 µg/mL in test [16]; 25 µg/mL in test [17]; 12.5 µg/mL in [18]. Also, the zone of inhibition at 1 µg/mL in test [1] was found to be 0 mm; in [2], 12 mm; in test [3], 10 mm; in test [4], 10 mm; in [5], 9 mm; in test [6], 10 mm.
